Data reported in article PMC2692205 (Chembiochem : a European journal of chemical biology, 2008).

Biological target: SaDUF62 (Salinispora arenicola, UniProt A8M783)
Test: biochemical

Sequence of SaDUF62 (A8M783 whole entry): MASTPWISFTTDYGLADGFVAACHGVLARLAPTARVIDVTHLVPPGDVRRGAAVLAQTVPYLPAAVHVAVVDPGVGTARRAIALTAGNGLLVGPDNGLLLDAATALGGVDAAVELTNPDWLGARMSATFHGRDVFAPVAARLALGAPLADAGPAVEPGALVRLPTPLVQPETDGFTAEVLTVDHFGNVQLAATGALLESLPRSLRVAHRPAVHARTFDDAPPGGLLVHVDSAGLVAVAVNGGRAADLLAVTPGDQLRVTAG

For `Cl` [chloride], the Ki was 1000 µM.
